Experimental data taken from ChEMBL document CHEMBL3045349, “A comparative study on the interference of two herbicides in wheat and italian ryegrass and on their antioxidant activities and detoxification rates” (J Agric Food Chem, 2011).

Assays:
Triticum aestivum [1] = assay: Effect on antioxidant enzyme system in Triticum aestivum (wheat) shoots assessed as glutathione S-transferase activity per mg protein compound administered at rate of 14 mf/flat measured 48 hr post treatment (reference value: 2.3 nmol/s per mg protein); type: functional
Triticum aestivum [2] = assay: Effect on photosynthetic activity in Triticum aestivum (wheat) shoots assessed as leaf net photosynthesis rate measured by CO2 production compound administered at rate of 14 mf/flat measured 24 hr post treatment (reference value: 1.35 umol/m2/s); type: functional
Lolium multiflorum [3] = assay: Effect on antioxidant enzyme system in Lolium multiflorum (Italian ryegrass) shoots assessed as ascorbate peroxidase activity per mg protein compound administered at rate of 14 mf/flat measured 48 hr post treatment (reference value: 11.3 nmol/s per mg protein); type: functional
Lolium multiflorum [4] = assay: Effect on photosynthetic activity in Lolium multiflorum (Italian ryegrass) shoots assessed as dark respiration rate measured by CO2 production compound administered at rate of 14 mf/flat measured 24 hr post treatment (reference value: -1.51 umol/m2/s); type: functional
Triticum aestivum [5] = assay: Effect on photosynthetic activity in Triticum aestivum (wheat) shoots assessed as leaf net photosynthesis rate measured by CO2 production compound administered at rate of 14 mf/flat measured 48 hr post treatment (reference value: 1.92 umol/m2/s); type: functional
Lolium multiflorum [6] = assay: Increase in antioxidant enzyme system in Lolium multiflorum (Italian ryegrass) shoots assessed as increase in ascorbate peroxidase activity compound administered at rate of 14 mf/flat measured 48 hr post treatment; type: functional
Lolium multiflorum [7] = assay: Effect on photosynthetic activity in Lolium multiflorum (Italian ryegrass) shoots assessed as leaf net photosynthesis rate measured by CO2 production compound administered at rate of 14 mf/flat measured 72 hr post treatment (reference value: 4.45 umol/m2/s); type: functional
Triticum aestivum [8] = assay: Effect on antioxidant enzyme system in Triticum aestivum (wheat) shoots assessed as glutathione reductase activity per mg protein compound administered at rate of 14 mf/flat measured 48 hr post treatment (reference value: 1.1 nmol/s per mg protein); type: functional
Lolium multiflorum [9] = assay: Effect on antioxidant enzyme system in Lolium multiflorum (Italian ryegrass) shoots assessed as ascorbate peroxidase activity per mg protein compound administered at rate of 14 mf/flat measured 48 hr post treatment (reference value: 11.6 nmol/s per mg protein); type: functional
Lolium multiflorum [10] = assay: Increase in antioxidant enzyme system in Lolium multiflorum (Italian ryegrass) shoots shoots assessed as increase in glutathione reductase activity compound administered at rate of 14 mf/flat measured 24 hr post treatment; type: functional
Lolium multiflorum [11] = assay: Effect on MDA content in Lolium multiflorum (Italian ryegrass) shoots compound administered at rate of 14 mf/flat measured 24 hr post treatment (reference value: 0.68 uM/L); type: functional
Triticum aestivum [12] = assay: Effect on antioxidant enzyme system in Triticum aestivum (wheat) shoots assessed as ascorbate peroxidase activity per mg protein compound administered at rate of 14 mf/flat measured 48 hr post treatment (reference value: 18.4 nmol/s per mg protein); type: functional
Triticum aestivum [13] = assay: Effect on antioxidant enzyme system in Triticum aestivum (wheat) shoots assessed as ascorbate peroxidase activity per mg protein compound administered at rate of 14 mf/flat measured 24 hr post treatment (reference value: 15.7 nmol/s per mg protein); type: functional
Lolium multiflorum [14] = assay: Effect on antioxidant enzyme system in Lolium multiflorum (Italian ryegrass) shoots assessed as glutathione S-transferase activity per mg protein compound administered at rate of 14 mf/flat measured 48 hr post treatment (reference value: 0.35 nmol/s per mg protein); type: functional
Shoot [15] = assay: Drug level in Lolium multiflorum (Italian ryegrass) shoots compound administered at rate of 14 mf/flat measured 72 hr post treatment by HPLC; type: ADME
Triticum aestivum [16] = assay: Reduction in glutathione S-transferase activity in Triticum aestivum (wheat) shoots compound administered at rate of 14 mf/flat measured 24 hr post treatment; type: functional; design: scale not given: the % may be the effect or the level left
Triticum aestivum [17] = assay: Increase in antioxidant enzyme system in Triticum aestivum (wheat) shoots assessed as increase in ascorbate peroxidase activity compound administered at rate of 14 mf/flat measured 48 hr post treatment; type: functional
Lolium multiflorum [18] = assay: Increase in antioxidant enzyme system in Lolium multiflorum (Italian ryegrass) shoots assessed as increase in dehydroascorbate reductase activity compound administered at rate of 14 mf/flat measured 24 hr post treatment; type: functional
Lolium multiflorum [19] = assay: Effect on photosynthetic activity in Lolium multiflorum (Italian ryegrass) shoots assessed as dark respiration rate measured by CO2 production compound administered at rate of 14 mf/flat measured 72 hr post treatment (reference value: -1.32 umol/m2/s); type: functional
Lolium multiflorum [20] = assay: Effect on antioxidant enzyme system in Lolium multiflorum (Italian ryegrass) shoots assessed as ascorbate peroxidase activity per mg protein compound administered at rate of 14 mf/flat measured 24 hr post treatment (reference value: 12.5 nmol/s per mg protein); type: functional
Lolium multiflorum [21] = assay: Increase in glutathione S-transferase activity in Lolium multiflorum (Italian ryegrass) compound administered at rate of 14 mf/flat measured 72 hr post treatment; type: functional
Triticum aestivum [22] = assay: Effect on antioxidant enzyme system in Triticum aestivum (wheat) shoots assessed as ascorbate peroxidase activity per mg protein compound administered at rate of 14 mf/flat measured 72 hr post treatment (reference value: 17.2 nmol/s per mg protein); type: functional
Lolium multiflorum [23] = assay: Effect on photosynthetic activity in Lolium multiflorum (Italian ryegrass) shoots assessed as leaf net photosynthesis rate measured by CO2 production compound administered at rate of 14 mf/flat measured 48 hr post treatment (reference value: 4.89 umol/m2/s); type: functional
Triticum aestivum [24] = assay: Effect on antioxidant enzyme system in Triticum aestivum (wheat) shoots assessed as dehydroascorbate reductase activity per mg protein compound administered at rate of 14 mf/flat measured 48 hr post treatment (reference value: 4.6 nmol/s per mg protein); type: functional
Shoot [25] = assay: Drug level in Lolium multiflorum (Italian ryegrass) shoots compound administered at rate of 14 mf/flat measured 48 hr post treatment by HPLC; type: ADME
Lolium multiflorum [26] = assay: Effect on antioxidant enzyme system in Lolium multiflorum (Italian ryegrass) shoots assessed as catalase activity per mg protein compound administered at rate of 14 mf/flat measured 48 hr post treatment (reference value: 0.10 nmol/s per mg protein); type: functional
Triticum aestivum [27] = assay: Increase in antioxidant enzyme system in Triticum aestivum (wheat) shoots assessed as increase in dehydroascorbate reductase activity compound administered at rate of 14 mf/flat measured 48 hr post treatment; type: functional
Triticum aestivum [28] = assay: Drug level in Triticum aestivum (wheat) compound administered at rate of 14 mf/flat measured 24 hr post treatment by HPLC; type: ADME, organism-based; settings: in vivo
Triticum aestivum [29] = assay: Effect on MDA content in Triticum aestivum (wheat) shoots compound administered at rate of 14 mf/flat measured 24 hr post treatment (reference value: 0.054 uM/L); type: functional
Shoot [30] = assay: Drug level in Triticum aestivum (wheat) shoots compound administered at rate of 14 mf/flat measured 48 hr post treatment by HPLC; type: ADME
Lolium multiflorum [31] = assay: Effect on antioxidant enzyme system in Lolium multiflorum (Italian ryegrass) shoots assessed as dehydroascorbate reductase activity per mg protein compound administered at rate of 14 mf/flat measured 48 hr post treatment (reference value: 3.7 nmol/s per mg protein); type: functional
Shoot [32] = assay: Drug level in Triticum aestivum (wheat) shoots compound administered at rate of 14 mf/flat measured 72 hr post treatment by HPLC; type: ADME

For `CCNc1nc(Cl)nc(NC(C)C)n1` [ATRAZINE], which Activity (Triticum aestivum [1]) is on record?
The Activity was 1.7 nmol/s/mg protein.

And the Activity (Triticum aestivum [2])?
Its Activity is -0.52 micromol/m2/s.

What about the Activity (Lolium multiflorum [3]) of the same compound?
Its Activity is 14.2 nmol/s/mg protein.

And the Activity (Lolium multiflorum [4])?
Its Activity is -1.32 micromol/m2/s.

What about the Activity (Triticum aestivum [5]) of the same compound?
The Activity was 0.22 micromol/m2/s.

What about the Activity (Lolium multiflorum [6]) of the same compound?
The Activity was 26%.

And the Activity (Lolium multiflorum [7])?
Its Activity is -1.35 micromol/m2/s.

What about the Activity (Triticum aestivum [8]) of the same compound?
The Activity was 1.1 nmol/s/mg protein.

What about the Activity (Lolium multiflorum [9]) of the same compound?
Its Activity is 12.2 nmol/s/mg protein.

And the Activity (Lolium multiflorum [10])?
Its Activity is 27%.

And the Activity (Lolium multiflorum [11])?
The Activity was 0.85 µM.

What about the Activity (Triticum aestivum [12]) of the same compound?
The Activity was 23.5 nmol/s/mg protein.

What about the Activity (Triticum aestivum [13]) of the same compound?
Its Activity is 22 nmol/s/mg protein.

And the Activity (Lolium multiflorum [14])?
Its Activity is 0.71 nmol/s/mg protein.

What about the Drug uptake (Shoot [15]) of the same compound?
Its Drug uptake is 4.52 ppm.

And the Activity (Triticum aestivum [16])?
Its Activity is 37%.

And the Activity (Triticum aestivum [17])?
The Activity was 28%.

And the Activity (Lolium multiflorum [18])?
The Activity was 15%.

What about the Activity (Lolium multiflorum [19]) of the same compound?
The Activity was -1.67 micromol/m2/s.

What about the Activity (Lolium multiflorum [20]) of the same compound?
The Activity was 15 nmol/s/mg protein.

And the Activity (Lolium multiflorum [21])?
The Activity was 24%.

What about the Activity (Triticum aestivum [22]) of the same compound?
Its Activity is 18 nmol/s/mg protein.

And the Activity (Lolium multiflorum [23])?
The Activity was -1.04 micromol/m2/s.

And the Activity (Triticum aestivum [24])?
Its Activity is 5.3 nmol/s/mg protein.

And the Drug uptake (Shoot [25])?
The Drug uptake was 5.9 ppm.

And the Activity (Lolium multiflorum [26])?
Its Activity is 0.1 nmol/s/mg protein.

And the Activity (Triticum aestivum [27])?
Its Activity is 15%.

And the Drug uptake (Triticum aestivum [28])?
Its Drug uptake is 2.26 ppm.

And the Activity (Triticum aestivum [29])?
Its Activity is 0.55 µM.

What about the Drug uptake (Shoot [30]) of the same compound?
The Drug uptake was 5.67 ppm.

What about the Activity (Lolium multiflorum [31]) of the same compound?
Its Activity is 3.6 nmol/s/mg protein.

What about the Drug uptake (Shoot [32]) of the same compound?
The Drug uptake was 1.94 ppm.

For `O=[N+]([O-])c1ccc(Oc2ccc(C(F)(F)F)cc2[N+](=O)[O-])cc1` [FLUORODIFEN], which Activity (Triticum aestivum [1]) is on record?
The Activity was 2.2 nmol/s/mg protein.

And the Activity (Triticum aestivum [2])?
The Activity was 1.15 micromol/m2/s.

What about the Activity (Lolium multiflorum [3]) of the same compound?
The Activity was 15.3 nmol/s/mg protein.

What about the Activity (Lolium multiflorum [4]) of the same compound?
Its Activity is -1.42 micromol/m2/s.

What about the Activity (Triticum aestivum [5]) of the same compound?
Its Activity is 2.13 micromol/m2/s.

What about the Activity (Lolium multiflorum [6]) of the same compound?
Its Activity is 35%.

What about the Activity (Lolium multiflorum [7]) of the same compound?
The Activity was 4.05 micromol/m2/s.

And the Activity (Triticum aestivum [8])?
Its Activity is 1.2 nmol/s/mg protein.

And the Activity (Lolium multiflorum [9])?
Its Activity is 14 nmol/s/mg protein.

What about the Activity (Lolium multiflorum [10]) of the same compound?
The Activity was 72%.

What about the Activity (Lolium multiflorum [11]) of the same compound?
The Activity was 0.64 µM.

What about the Activity (Triticum aestivum [12]) of the same compound?
Its Activity is 20.2 nmol/s/mg protein.

And the Activity (Triticum aestivum [13])?
The Activity was 22.9 nmol/s/mg protein.

And the Activity (Lolium multiflorum [14])?
The Activity was 1.65 nmol/s/mg protein.

And the Drug uptake (Shoot [15])?
The Drug uptake was 0.46 ppm.

What about the Activity (Triticum aestivum [16]) of the same compound?
Its Activity is 15%.

And the Activity (Triticum aestivum [17])?
Its Activity is 10%.

And the Activity (Lolium multiflorum [18])?
The Activity was 8%.

What about the Activity (Lolium multiflorum [19]) of the same compound?
Its Activity is -1.06 micromol/m2/s.

What about the Activity (Lolium multiflorum [20]) of the same compound?
Its Activity is 13.9 nmol/s/mg protein.

And the Activity (Lolium multiflorum [21])?
Its Activity is 35%.

What about the Activity (Triticum aestivum [22]) of the same compound?
The Activity was 17.2 nmol/s/mg protein.

And the Activity (Lolium multiflorum [23])?
Its Activity is 4.42 micromol/m2/s.

What about the Activity (Triticum aestivum [24]) of the same compound?
Its Activity is 5.1 nmol/s/mg protein.

And the Drug uptake (Shoot [25])?
The Drug uptake was 1.17 ppm.

And the Activity (Lolium multiflorum [26])?
The Activity was 0.11 nmol/s/mg protein.

What about the Activity (Triticum aestivum [27]) of the same compound?
Its Activity is 11%.

What about the Drug uptake (Triticum aestivum [28]) of the same compound?
The Drug uptake was 0.44 ppm.

What about the Activity (Triticum aestivum [29]) of the same compound?
The Activity was 0.05 µM.

What about the Drug uptake (Shoot [30]) of the same compound?
Its Drug uptake is 0.27 ppm.

What about the Activity (Lolium multiflorum [31]) of the same compound?
Its Activity is 3.7 nmol/s/mg protein.

And the Drug uptake (Shoot [32])?
Its Drug uptake is 0.2 ppm.
